Results on four molecules are retold here after article PMC11027885, “Utilizing surface plasmon resonance as a novel method for monitoring in-vitro P-glycoprotein efflux” (Frontiers in biophysics, 2024).

For one series, the target named is mouse Pgp (Abcb1a, MDR3) (Mus musculus, UniProt P21447). Nature of the series: ATPase assay (Chifflet method), Pgp reconstituted in liposomes.
A further series addresses Pgp (Abcb1a, MDR3) (Mus musculus, UniProt P21447). Nature of the series: in vitro. As to conditions: pH 7.4.
For another series, the system named is Pgp. On the set-up: method as in Doan et al. (2002). As to conditions: drug accumulation assay, MDR1-MDCKII cells; ref Doan et al. (2002); cited from earlier work.

Structures are written as SMILES. Where a name gives a salt, the structure may show the parent alone. Read-outs that look alike come from different tables or passages of the source.

Chain of mouse Pgp (Abcb1a, MDR3) (P21447 whole entry): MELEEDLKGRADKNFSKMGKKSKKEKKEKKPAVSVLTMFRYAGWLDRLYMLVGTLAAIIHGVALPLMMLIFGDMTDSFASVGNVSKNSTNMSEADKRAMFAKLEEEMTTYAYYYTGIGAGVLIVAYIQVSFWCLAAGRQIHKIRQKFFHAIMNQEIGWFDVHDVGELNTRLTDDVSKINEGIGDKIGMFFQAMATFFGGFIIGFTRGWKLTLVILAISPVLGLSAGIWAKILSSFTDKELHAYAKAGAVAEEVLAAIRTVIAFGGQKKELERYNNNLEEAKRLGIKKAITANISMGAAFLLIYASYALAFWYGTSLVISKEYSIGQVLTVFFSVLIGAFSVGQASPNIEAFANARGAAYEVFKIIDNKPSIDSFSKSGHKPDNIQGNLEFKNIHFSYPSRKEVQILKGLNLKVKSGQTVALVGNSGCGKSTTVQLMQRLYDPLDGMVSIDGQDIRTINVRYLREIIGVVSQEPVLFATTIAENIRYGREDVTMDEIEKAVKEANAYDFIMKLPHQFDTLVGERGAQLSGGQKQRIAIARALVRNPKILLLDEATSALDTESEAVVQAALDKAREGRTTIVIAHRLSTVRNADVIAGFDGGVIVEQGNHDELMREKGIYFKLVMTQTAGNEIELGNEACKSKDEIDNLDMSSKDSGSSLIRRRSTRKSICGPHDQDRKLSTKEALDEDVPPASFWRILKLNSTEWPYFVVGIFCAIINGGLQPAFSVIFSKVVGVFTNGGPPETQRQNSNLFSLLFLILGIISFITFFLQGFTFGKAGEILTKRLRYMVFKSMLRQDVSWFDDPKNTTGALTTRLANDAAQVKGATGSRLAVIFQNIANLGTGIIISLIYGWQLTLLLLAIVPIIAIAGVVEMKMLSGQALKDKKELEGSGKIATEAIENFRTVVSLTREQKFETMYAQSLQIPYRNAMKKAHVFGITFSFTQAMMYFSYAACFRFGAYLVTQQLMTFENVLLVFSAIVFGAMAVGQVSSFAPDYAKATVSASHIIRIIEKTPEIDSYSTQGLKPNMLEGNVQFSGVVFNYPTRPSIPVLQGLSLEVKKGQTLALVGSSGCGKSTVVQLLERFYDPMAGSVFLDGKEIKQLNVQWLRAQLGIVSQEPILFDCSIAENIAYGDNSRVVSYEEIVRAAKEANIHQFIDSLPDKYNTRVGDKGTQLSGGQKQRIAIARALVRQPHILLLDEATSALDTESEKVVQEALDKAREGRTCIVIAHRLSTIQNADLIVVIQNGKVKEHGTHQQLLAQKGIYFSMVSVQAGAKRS
Chain of Pgp (Abcb1a, MDR3) (P21447 whole entry): as above

Broadly, the koff is a measure of how fast the partners let go of each other. Read a high koff as fast dissociation. For the molecule `CNCCCN1c2ccccc2CCc2ccccc21` [Desipramine, desipramine hydrochloride], the “vmax of Pgp ATP hydrolysis” value at mouse Pgp (Abcb1a, MDR3) (50 nM Pgp in liposomes, curve fit (Eq. 2 monophasic, Eq. 3 biphasic)) turned out to be 904 ± 65 nmolmin^−1mg^−1. In addition, on mouse Pgp (Abcb1a, MDR3) (shape of ATPase kinetics curve), the “ATP hydrolysis activation profile” value is given as “monophasic”. At Pgp (Abcb1a, MDR3), this molecule returned a koff of 129 s⁻¹. In the series on Pgp, the “Pgp efflux ratio (literature)” value is on record as 2.

For `CCC(=O)C(CC(C)N(C)C)(c1ccccc1)c1ccccc1` (stereo not drawn) [Methadone, methadone hydrochloride], on mouse Pgp (Abcb1a, MDR3), the “peak ATP hydrolysis rate” value was “approximately 800 nmolmin^−1mg^−1” and the “vmax of Pgp ATP hydrolysis” value was found to be 849 ± 45 nmolmin^−1mg^−1.

In general, Ki refers to a measure of affinity in units of concentration, obtained from inhibition or displacement. On to `C=C[C@H]1C[N@@]2CC[C@H]1C[C@@H]2[C@@H](O)c1ccnc2ccc(OC)cc12` [Quinidine], for which, at mouse Pgp (Abcb1a, MDR3), the affinity, expressed as Ki, was 131 ± 34 µM and the “peak ATP hydrolysis rate” value is given as “approximately 900 nmolmin^−1mg^−1”.

As to `[Na+].[Na+].[Na+].[O]=[V]([O-])([O-])[O-]` [sodium orthovanadate, Sodium orthovanadate], the “Pgp ATPase activity in presence of inhibitor” value on mouse Pgp (Abcb1a, MDR3) (decline from basal 482 ± 50) is reported as “approximately 100 nmolmin^−1mg^−1”.
